According to US9340577B2, “HLA binding motifs and peptides and their uses” (priority 1992, dated 2016):
No end group written: not given here.

Assays:
Assay in all cases: biochemical
Type in all cases: binding
HLA-A*0201 (HLA-A2.1) = HLA-A*0201 (HLA-A2.1) (Homo sapiens, UniProt P04439, D140Y/D185E/D98H/E176V/E277Q/G131W/G231S/I119V/I121R/I166T/I218V/L300P/L318F/N151K/N90K/P208A/P217A/Q86G/Q94H/R138H/R169H/T345S)
A*0206 = A*0206 (Homo sapiens, UniProt P04439, D140Y/D185E/D98H/E176V/E277Q/F33Y/G131W/G231S/I119V/I121R/I166T/I218V/L300P/L318F/N151K/N90K/P208A/P217A/Q86G/Q94H/R138H/R169H/T345S)
A*0202 = A*0202 (Homo sapiens, UniProt P04439, D140Y/D185E/D98H/E176V/E277Q/G131W/G231S/I119L/I121R/I166T/I218V/L180W/L300P/L318F/N151K/N90K/P208A/P217A/Q67R/Q86G/Q94H/R138H/R169H/T345S)
A*6802 = A*6802 (Homo sapiens, UniProt P04439, A269V/D140Y/D185E/E176V/E277Q/E87N/F33Y/G231S/I121R/I166T/I218V/L180W/L300P/L318F/N151K/P208A/P217A/Q86R/R138H/R169H/S129P/T345S/V36M)
A*0203 = A*0203 (Homo sapiens, UniProt P04439, A173T/D140Y/D185E/D98H/E277Q/G131W/G231S/I119V/I121R/I166T/I218V/L180W/L300P/L318F/N151K/N90K/P208A/P217A/Q86G/Q94H/R138H/R169H/T345S)

Sequence	IC50 (HLA-A*0201 (HLA-A2.1)) [nM]	IC50 (A*0206) [nM]	IC50 (A*0202) [nM]	IC50 (A*6802) [nM]	IC50 (A*0203) [nM]
ALYWFRTAM [Peptide 86.0195]	1480	13900	17	> 20000	214
QLSNGNRTL [Peptide 9013.0050]	16100	> 20000	39	8650	43
NVAEGKEVV [Peptide 9013.0015]	> 20000	> 20000	1310	354	4750
NLAEGKEVL [Peptide 9013.0016]	3840	> 20000	14	> 20000	293
VLEGKEVLLLV [Peptide 9013.0273]	1840	4610	32	> 20000	272
LLLTASLLV [Peptide 9013.0002]	28	79	1330	> 20000	293
QQIEFITFL [Peptide 1578.10]	42	45	5.9	93	20
MTRNPPVPV [Peptide 1539.02]	9170	> 20000	1140	117	35
FLSGCVISYV [Peptide 1578.32]	43	67	2.7	102	7.4
EVQNTTYLWWV [Peptide 9013.0326]	> 20000	> 20000	> 20000	34	19600
LLFWNPPTTA [Peptide 9013.0123]	25	1170	1.3	2140	1.6
RILQHLLFA [Peptide 1525.24]	160	11	220	> 20000	51
RMLQHLLFI [Peptide 1545.04]	16	14	10	> 20000	4
LLTFWNPPTV [Peptide 9013.0120]	170	1000	10	607	3.2
FQFQNPFPL [Peptide 1578.40]	8.4	6.3	0.75	3160	3.5
AVAFTCEPEV [Peptide 9013.0155]	7860	199	233	13400	54
GLTVGIMIGVL [Peptide 9013.0343]	5010	11500	914	2640	290
RLENAILFTA [Peptide 1578.51]	2150	4560	43	> 20000	1770
TLQATPGPA [Peptide 9013.0028]	19400	> 20000	1980	> 20000	29
LTFWNPPTTV [Peptide 9013.0122]	210	339	38	23	1.9
TLQDVSLEV [Peptide 1578.45]	701	2070	18	2680	26
